Source: the supplement of paper PMC10307832

Experiments:
Experiment in all cases: relative viability (nuclei count vs DMSO), 5 days (fraction); higher = more cells survive
Kobe2602 + Linsitinib = compound: C1=CC(=CC=C1NC(=S)NNC2=C(C=C(C=C2[N+](=O)[O-])C(F)(F)F)[N+](=O)[O-])F [Kobe2602] + C[C@]1(O)C[C@@H](c2nc(-c3ccc4ccc(-c5ccccc5)nc4c3)c3c(N)nccn32)C1 [Linsitinib] (partner 1 µM)
Summary of the method: (§1)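 Lung cancer cell lines were pin-tool dosed in 1536-well plates on the day after seeding, with either a lone drug or a fixed anchor-drug dose plus five library-drug doses (not always all listed) in √10 steps. Nuclei were counted on 4× images after 5 days. Relative viability is the ratio of treated-well to vehicle-well nuclei counts, with each value a median of duplicate plates.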

Kobe2602 + Bortezomib = compound: C1=CC(=CC=C1NC(=S)NNC2=C(C=C(C=C2[N+](=O)[O-])C(F)(F)F)[N+](=O)[O-])F [Kobe2602] + CC(C)C[C@H](NC(=O)[C@H](Cc1ccccc1)NC(=O)c1cnccn1)B(O)O [Bortezomib] (partner 0.002 µM)
Summary of the method: as §1

Zosuquidar + Dasatinib = compound: O[C@@H](COc1cccc2ncccc12)CN1CCN([C@@H]2c3ccccc3[C@@H]3[C@H](c4ccccc42)C3(F)F)CC1 [Zosuquidar] + Cc1nc(Nc2ncc(C(=O)Nc3c(C)cccc3Cl)s2)cc(N2CCN(CCO)CC2)n1 [Dasatinib] (partner 0.075 µM)
Summary of the method: as §1

Kobe2602 + Phenformin = compound: C1=CC(=CC=C1NC(=S)NNC2=C(C=C(C=C2[N+](=O)[O-])C(F)(F)F)[N+](=O)[O-])F [Kobe2602] + N=C(N)NC(=N)NCCc1ccccc1 [Phenformin] (partner 250 µM)
Summary of the method: as §1

| Cell Line | relative viability (Kobe2602 + Linsitinib; first compound 0.2 µM) | relative viability (Kobe2602 + Linsitinib; first compound 0.6325 µM) | relative viability (Kobe2602 + Linsitinib; first compound 2 µM) | relative viability (Kobe2602 + Linsitinib; first compound 6.325 µM) | relative viability (Kobe2602 + Linsitinib; first compound 20 µM) | relative viability (Kobe2602 + Bortezomib; first compound 0.2 µM) | relative viability (Kobe2602 + Bortezomib; first compound 0.6325 µM) | relative viability (Kobe2602 + Bortezomib; first compound 2 µM) | relative viability (Kobe2602 + Bortezomib; first compound 6.325 µM) | relative viability (Kobe2602 + Bortezomib; first compound 20 µM) | relative viability (Zosuquidar + Dasatinib; first compound 0.01 µM) | relative viability (Zosuquidar + Dasatinib; first compound 0.03162 µM) | relative viability (Zosuquidar + Dasatinib; first compound 0.1 µM) | relative viability (Zosuquidar + Dasatinib; first compound 0.3162 µM) | relative viability (Zosuquidar + Dasatinib; first compound 1 µM) | relative viability (Kobe2602 + Phenformin; first compound 0.2 µM) | relative viability (Kobe2602 + Phenformin; first compound 0.6325 µM) | relative viability (Kobe2602 + Phenformin; first compound 2 µM) | relative viability (Kobe2602 + Phenformin; first compound 6.325 µM) | relative viability (Kobe2602 + Phenformin; first compound 20 µM) |
| --- | --- | --- | --- | --- | --- | --- | --- | --- | --- | --- | --- | --- | --- | --- | --- | --- | --- | --- | --- | --- |
| NCI-H2405 | 0.961 | 1.06 | 0.932 | 0.971 | 0.994 | 1.05 | 0.999 | 0.936 | 0.968 | 0.999 | 0.208 | 0.174 | 0.208 | 0.228 | 0.215 | 0.418 | 0.431 | 0.411 | 0.393 | 0.452 |
| NCI-H1915 | 1.08 | 1.12 | 1.08 | 1.08 | 1.1 | 1.01 | 0.998 | 0.958 | 0.99 | 0.931 | 0.311 | 0.305 | 0.308 | 0.337 | 0.283 | 0.366 | 0.38 | 0.37 | 0.366 | 0.361 |
| NCI-H661 | 0.53 | 0.559 | 0.629 | 0.539 | 0.581 | 0.936 | 0.83 | 0.78 | 0.796 | 0.755 | 0.812 | 0.756 | 0.922 | 1.03 | 0.865 | 0.273 | 0.277 | 0.261 | 0.298 | 0.298 |
| NCI-H647 | 1.12 | 1.45 | 1.25 | 0.864 | 1.19 | 0.911 | 1.22 | 0.889 | 0.882 | 0.938 | 0.168 | 0.121 | 0.137 | 0.229 | 0.163 | 0.554 | 0.549 | 0.655 | 0.481 | 0.441 |
| HCC-366 | 0.711 | 0.743 | 0.629 | 0.664 | 0.647 | 1.13 | 1.01 | 1.01 | 1.07 | 1.12 | 0.608 | 0.468 | 0.496 | 0.767 | 0.704 | 0.669 | 0.642 | 0.618 | 0.584 | 0.61 |
| NCI-H2087 | 1.11 | 0.864 | 0.882 | 0.939 | 0.94 | 0.778 | 0.626 | 0.644 | 0.851 | 0.83 | 0.773 | – | 0.668 | 0.91 | 0.919 | 0.437 | 0.47 | 0.462 | 0.471 | 0.438 |
| SK-LU-1 | 1.05 | 1.15 | 1.04 | 1.04 | 1.27 | 1.38 | 1.55 | 1.18 | 1.37 | 1.61 | 0.191 | 0.145 | 0.194 | 0.211 | 0.189 | 0.618 | 0.682 | 0.584 | 0.526 | 0.597 |
| HOP-62 | 0.837 | 1.11 | 0.974 | 1.01 | 1.12 | 0.875 | 1.15 | 0.508 | 0.75 | 0.818 | 0.702 | 0.528 | 0.594 | 0.679 | 0.633 | 0.644 | 0.693 | 0.66 | 0.698 | 0.603 |
| NCI-H2126 | 0.718 | 0.659 | 0.7 | 0.704 | 0.765 | 1.14 | 1.09 | 1.11 | 1.19 | 1.11 | 0.581 | 0.599 | – | 0.639 | 0.61 | 0.552 | 0.53 | 0.521 | 0.513 | 0.494 |
| NCI-H441 | 0.612 | 0.746 | 0.48 | 0.557 | 0.623 | 0.549 | 0.582 | 0.527 | 0.575 | 0.687 | 0.521 | 0.606 | 0.574 | 0.683 | 0.718 | 0.801 | 0.81 | 0.876 | 0.814 | 0.903 |
| SW 1573 | 0.846 | 0.767 | 0.811 | 0.769 | 0.864 | 1.21 | 0.967 | 1.06 | 0.945 | 1.18 | 0.603 | 0.437 | 0.667 | 0.456 | 0.595 | 0.346 | 0.47 | 0.378 | 0.346 | 0.168 |
| H3255 | 0.875 | 1.09 | 0.941 | 0.838 | 0.87 | 0.691 | 0.782 | 0.743 | 0.818 | 0.766 | 0.346 | 0.273 | 0.341 | 0.727 | 0.303 | 0.339 | 0.359 | 0.422 | 0.315 | 0.334 |
| EMC-BAC-2 | 0.794 | 0.869 | 0.817 | 0.796 | 0.793 | 1.08 | 1.17 | 1.06 | 1.12 | 1.12 | 0.325 | 0.34 | 0.373 | 0.339 | 0.325 | 0.575 | 0.591 | 0.508 | 0.538 | 0.553 |
| CAL-12T | 0.707 | 0.821 | 0.705 | 0.916 | 0.709 | 0.997 | 1.17 | 0.921 | 0.931 | 0.93 | 0.355 | 0.397 | 0.38 | 0.606 | 0.443 | 0.586 | 0.597 | 0.579 | 0.538 | 0.449 |
| NCI-H838 | 0.91 | 1.12 | 0.88 | 0.992 | 1.07 | 0.748 | 0.924 | 0.99 | 0.749 | 0.725 | 0.321 | 0.26 | – | 0.336 | 0.35 | 0.549 | 0.71 | 0.574 | 0.577 | 0.554 |
| NCI-H1437 | 0.974 | 0.995 | 1.03 | 0.998 | 0.872 | 0.595 | 0.48 | 0.562 | 0.392 | 0.451 | 0.404 | 0.398 | 0.457 | 0.715 | 0.346 | 0.335 | 0.282 | 0.279 | 0.297 | 0.352 |
